Results taken from US9817000B2, “Method for identifying compounds that modulate a T2R taste receptor” (The Regents of the University of California, priority 1999, dated 2017).

Assays:
mT2R5 (C57BL/6-allele) = target: T1, mT2R5 (C57BL/6-allele) (Mus musculus, UniProt Q9JKT4, G155D/I85V/L294R/T101A/T44I); assay: FURA-2 [Ca2+]i imaging in HEK-293 cells expressing Gα15 and rho-mT2R5 from non-taster strain (C57BL/6 allele); format: cell-based
T1 construct: expressed in transfected cells; host or cells: modified HEK-293 cells (PEAKrapid) expressing Gα15
T1 sequence (Q9JKT4 1-300 T44I/I85V/T101A/G155D/L294R): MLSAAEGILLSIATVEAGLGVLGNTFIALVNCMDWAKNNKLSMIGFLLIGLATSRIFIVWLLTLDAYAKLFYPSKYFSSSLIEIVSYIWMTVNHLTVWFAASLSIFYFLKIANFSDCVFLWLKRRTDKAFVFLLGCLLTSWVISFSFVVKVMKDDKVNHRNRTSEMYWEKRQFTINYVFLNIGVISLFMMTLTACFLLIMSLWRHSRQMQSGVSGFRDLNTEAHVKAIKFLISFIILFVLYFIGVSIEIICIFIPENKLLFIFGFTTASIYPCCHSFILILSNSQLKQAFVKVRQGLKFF
Protocol: A bridge overlap PCR extension technique was used to generate rho-T2R chimeras, which contain the first 39 amino acids of bovine rhodopsin in frame with human and rodent T2R coding sequences (Mehta and Singh, Biotechniques 26:1082-1086 (1999). All receptors were cloned into a pEAK10 mammalian expression vector (Edge Biosystems, MD). Modified HEK-293 cells (PEAK^rapid cells; Edge BioSystems, MD) were grown and maintained at 37° C. in UltraCulture medium (Bio Whittaker) supplemented with 5% fetal bovine serum, 100 μg/ml Gentamycin sulphate (Fisher), 1 μg/ml Amphotericin B and 2 mM GlutaMax I (Lifetechnologies). […]
Transfected cells were washed once in Hank's balanced salt solution with 1 mM sodium pyruvate and 10 mM HEPES, pH 7.4 (assay buffer), and loaded with 2 μM FURA-2 AM (Molecular Probes) for 1 h at room temperature. […] [Ca^2+]i changes were monitored using a Nikon Diaphot 200 microscope equipped with a 10×/0.5 fluor objective with the TILL imaging system (T.I.L.L Photonics GmbH). Acquisition and analysis of the fluorescence images used TILL-Vision software. Generally, [Ca^2+]i was measured for 80-120 s by sequentially illuminating cells for 200 ms at 340 nm and 380 nm and monitoring the fluorescence emission at 510 nm using a cooled CCD camera. The F340/F380 ratio was analyzed to measure [Ca^2+]i. […]

other hT2Rs = assay: FURA-2 [Ca2+]i imaging in control untransfected cells or cells transfected with other hT2Rs; format: cell-based, human
Protocol: To determine whether other T2Rs are also activated by bitter compounds, 11 rhodopsin-tagged human T2R receptors were assayed by individually transfecting them into HEK-293 cells expressing Gα15. Each transfected line was tested against a battery of bitter and sweet tastants, including amino acids, peptides, and other natural and synthetic compounds.

hT2R4 = target: T2, hT2R4 (Homo sapiens, UniProt Q9NYW5); assay: FURA-2 [Ca2+]i imaging in HEK-293 cells expressing Gα15 and rho-hT2R4; format: cell-based; conditions: for [Ca2+]i response (FURA-2): 1.5 mM denatonium
T2 construct: Full-length hT2Rs were isolated by PCR amplification of genomic DNA; expressed in transfected cells; host or cells: HEK-293 cells (PEAKrapid) expressing Gα15
T2 sequence (Q9NYW5 1-299): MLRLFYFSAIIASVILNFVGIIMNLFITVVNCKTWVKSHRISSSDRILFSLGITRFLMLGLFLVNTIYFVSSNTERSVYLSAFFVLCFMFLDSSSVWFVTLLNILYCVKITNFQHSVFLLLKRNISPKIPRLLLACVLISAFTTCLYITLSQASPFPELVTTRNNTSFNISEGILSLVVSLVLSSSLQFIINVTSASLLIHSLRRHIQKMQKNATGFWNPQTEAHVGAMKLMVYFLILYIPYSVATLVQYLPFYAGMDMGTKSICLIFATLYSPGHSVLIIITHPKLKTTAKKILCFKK
Excerpt: In this system, receptor activation leads to increases in intracellular calcium [Ca2+]i, which can be monitored at the single cell level using the FURA-2 calcium-indicator dye (Tsien et al., Cell Calcium 6:145-157 (1985)). To test and optimize Gα15 coupling, two different GPCRs, a Gαi-coupled μ-opioid receptor (Reisine, Neuropharm. 34:463-472 (1995)) and a Gαq-coupled mGluR1 receptor (Masu et al., Nature 349:760-765 (1991)), were used. Transfection of these receptors into HEK-293 cell produced robust, agonist-selective, and Gα15-dependent Ca^2+ responses (FIG. 1).
A number of studies have shown that many GPCRs, in particular sensory receptors, require specific “chaperones” for maturation and targeting through the secretory pathway (Baker et al., Embo J 13:4886-4895 (1994); Dwyer et al., Cell 93:455-466 (1998)). Recently, Krautwurst et al. (Cell 95:917-926 (1998)) generated chimeric receptors consisting of the first 20 amino acids of rhodopsin and various rodent olfactory receptors. These were targeted to the plasma membrane and functioned as odorant receptors in HEK-293 cells. To determine whether rhodopsin sequences can also help target T2Rs to the plasma membra, rhodopsin-T2R chimeras (rho-T2Rs) were constructed. […] Similar results were obtained with 11 human and 16 rodent T2Rs (see below). To further enhance the level of T2R expression, rho-T2Rs were placed under the control of a strong EF-1α promoter, and introduced as episomal plasmids into modified HEK-293 cells expressing Gα15 (pEAKrapid cells).
A bridge overlap PCR extension technique was used to generate rho-T2R chimeras, which contain the first 39 amino acids of bovine rhodopsin in frame with human and rodent T2R coding sequences (Mehta and Singh, Biotechniques 26:1082-1086 (1999). All receptors were cloned into a pEAK10 mammalian expression vector (Edge Biosystems, MD). Modified HEK-293 cells (PEAK^rapid cells; Edge BioSystems, MD) were grown and maintained at 37° C. in UltraCulture medium (Bio Whittaker) supplemented with 5% fetal bovine serum, 100 μg/ml Gentamycin sulphate (Fisher), 1 μg/ml Amphotericin B and 2 mM GlutaMax I (Lifetechnologies). For transfection, cells were seeded onto matrigel coated 24-well culture plates or 35 mm recording chambers. After 24 h at 37° C., cells were washed in OptiMEM medium (Lifetechnologies) and transfected using LipofectAMINE reagent (Lifetechnologies). Transfection efficiencies were estimated by co-transfection of a GFP reporter plasmid, and were typically >70%. Immunofluoresence staining, and activity assays were performed 36-48 h after transfection.
Transfected cells were washed once in Hank's balanced salt solution with 1 mM sodium pyruvate and 10 mM HEPES, pH 7.4 (assay buffer), and loaded with 2 μM FURA-2 AM (Molecular Probes) for 1 h at room temperature. The loading solution was removed and cells were incubated in 200 μl of assay buffer for 1 h to allow the cleavage of the AM ester. For most experiments, 24-well tissue culture plates containing cells expressing a single rho-T2R were stimulated with 200 μl of a 2× tastant solution (see next section). [Ca^2+]i changes were monitored using a Nikon Diaphot 200 microscope equipped with a 10×/0.5 fluor objective with the TILL imaging system (T.I.L.L Photonics GmbH). Acquisition and analysis of the fluorescence images used TILL-Vision software. Generally, [Ca^2+]i was measured for 80-120 s by sequentially illuminating cells for 200 ms at 340 nm and 380 nm and monitoring the fluorescence emission at 510 nm using a cooled CCD camera. The F340/F380 ratio was analyzed to measure [Ca^2+]i.
Kinetics of activation and deactivation were measured using a bath perfusion system. Cells were seeded onto a 150 μl microperfusion chamber, and test solutions were pressure-ejected with a picospritzer apparatus (General Valve, Inc.). Flow-rate was adjusted to ensure complete exchange of the bath solution within 4-5 s. […]

SMILES	EC50 (mT2R5 (C57BL/6-allele)) [nM]	dose response compared with receptor from taster strains (mT2R5 (C57BL/6-allele))	[Ca2+]i response (other hT2Rs)	[Ca2+]i response (hT2R4)	[Ca2+]i response (FURA-2) (hT2R4; absence of Gα15)	[Ca2+]i response (FURA-2) (hT2R4; with Gα15)	increase in [Ca2+]i on tastant stimulation (hT2R4; concentrations as in FIG. 4 (denatonium 5 mM))	threshold of dose-dependent response (hT2R4; in µM)
C[C@@H]1C[C@@H]([C@H](O)CC2CC(=O)NC(=O)C2)C(=O)[C@@H](C)C1 [cycloheximide]	~2300	shift in cycloheximide sensitivity						
CC[N+](CC)(CC(=O)Nc1c(C)cccc1C)Cc1ccccc1 [denatonium]			not	significant transient increase in [Ca2+]i	No increase in [Ca2+]i	robust Gα15 dependent responses	increase in [Ca2+]i could be induced	~100
